In series [1] the test system is MNV.CW3/S131T and MNV.CW3/Y154F. Description: Antiviral assay on reverse-engineered MNV.CW3 mutant viruses (S131T, Y154F). Format: cell-based, Murine norovirus. Particulars: single mutations S131T or Y154F in MNV backbone. Here is the method:
The desired mutations were introduced into the MNV.CW3 cDNA clones using the QuikChange II XL mutagenesis kit (Agilent) according to the manufacturer’s instructions. The presence of the desired mutation in the produced construct was confirmed by PCR and sequencing was done by Macrogen Inc. Sequences were analyzed and mutations were detected using the Geneious software.
The MNV.CW3 mutant viral stocks were obtained by transfecting the mutated plasmid pMNV CW3 (kindly provided by Prof. Wobus, University of Michigan) in Huh 7 Lunet cells expressing the MNV receptor CD300lf (kindly provided by Prof. Taube, University of Lübeck). Huh-7 CD300lf cells were cultured under selective pressure of G418. The Huh-7 CD300lf cells were seeded in 6-well plates at a density of 2 × 10^5 cells/mL in 2.5 mL of complete media. After 24 h, the cells were transfected with 2.5 μg of pMNV CW3 plasmid DNA using the TransIT mRNA Transfection Kit (Mirus Bio Corporation) according to the manufacturer’s protocol. Red fluorescent protein (RFP) was used as a positive control for transfection. Transfected cells were incubated for 48 h, cells underwent two freeze thaw cycles and the virus was harvested from the supernatants after centrifugation (10 min, 1000× g) and stored at −80 °C. Virus stocks were passaged for three times on BV-2 cells and followed by two consecutive passages on RAW 264.7 cells. Viral titers were determined by serial dilutions on RAW 264.7 cells seeded in 96-well plates.
(§1) The assessment of the antiviral activity of compounds on resistant viruses was performed similarly as the regular antiviral assay on MNV. First, the titer of the resistant viruses was determined by endpoint titration. A concentration of 30× TCID50 was used for each virus in the antiviral assays. RAW 264.7 cells (1 × 10^4 cells/well) were seeded in the presence of a dilution series of compounds and infected. Antiviral activity was determined using the MTS method. The 50% effective concentration (EC50) was defined as the compound concentration that protected 50% of the cells from CPE.

The test system of series [2] is HuNoV GI.1 replicon (Norwalk replicon). Description: HuNoV GI.1 replicon assay in HG23 cells (RT-qPCR). Type of series: cell-based, Human norovirus. Here is the method:
HuNoV GI.1 replicon: The experiment was performed as described earlier with minor modifications. In short, HG23 cells (7.5 × 10^2 cells/well) were seeded into the wells of a 96-well plate without G418 (Geneticin Selective Antibiotic). After 24 h of incubation, serial dilutions of compounds were added. Cells were further incubated for 72 h, then cells were collected for RNA load quantification by RT-qPCR. To determine relative levels of Norwalk virus replicon RNA, β-actin was used as a normalizer and ratios were calculated as previously described.
In general terms: Replicon systems follow genome replication, usually without infectious particles.

Series [3] deals with MNV. Nature of the series: Time-of-drug-addition assay (TOA) in MNV-infected RAW 264.7 cells. Format: cell-based, Murine norovirus. Here is the method: RAW 264.7 cells (4 × 10^5 cells/mL) were infected with MNV (MOI of 1). After 1 h at 4 °C, cells were washed with cold (4 °C) DMEM to remove unbound viruses. Cells were incubated at 37 °C to start the infection. To study the replication kinetics of MNV supernatant and cells were harvested, from untreated cultures, every 2 h until 24 h post-infection (pi) and viral RNA was quantified by RT-qPCR. In parallel, another set of infected cultures were treated with compound. The compound was added at 2 h intervals and cultures were further incubated until 24 h pi, supernatant and cells were collected separately for determination of the viral RNA by RT-qPCR. The isolation of the extracellular MNV RNA from cell culture supernatant was done by the NucleoSpin RNA Virus Kit (Macherey–Nagel), and the intracellular RNA was extracted from cells by the RNeasy kit (Qiagen).

The subject of series [4] is Murine norovirus type 1, strain CW1. Description: MNV-induced CPE reduction assay (MTS read-out) in RAW 264.7 cells. Particulars: MNV CW1, RAW 264.7 cells, read-out: MNV EC50 ± SD. Type of series: cell-based. Here is the method:
Norovirus: The experiment was performed as described earlier. In short, RAW 264.7 cells (1 × 10^4 cells/well) were infected with MNV.CW1 in the presence of a dilution series of compounds. Antiviral activity and cytotoxicity were determined using a colometric assay using 3-(4,5-dimethylthiazol-2-yl)-5-(3-carboxymethoxyphenyl)-2-(4-sulfophenyl)-2H-tetrazolium (MTS). The 50% effective concentration (EC50) was defined as the compound concentration that protected 50% of the cells from CPE. The cell viability % was calculated as (ODtreated/ODCC) […] and the 50% cytotoxic concentration (CC50) was defined as the compound concentration that reduces the number of viable cells by 50%.

Series [5] relates to compound 6res MNV variants. Nature of the series: Antiviral assay on selected compound 6res MNV variants in RAW 264.7 cells. Type of series: cell-based, Murine norovirus. Here is the method:
RAW 264.7 cells (1 × 10^4 cells/well) were seeded into the wells of 96-well plate and were infected with MNV.CW1 in the presence of a dilution series of compounds. When CPE was visible in the virus control (no compound), all the wells were scored for visible CPE. Virus was harvested from the wells in which CPE was observed under the highest compound pressure. The resistant virus was then diluted to 1:5 and used to infect a new 96-well plate under the same conditions to continue. […] MNV^res viruses were analyzed by deep sequencing by the group of Prof. Matthijnssens as described previously. The assembled sequence of the untreated MNV, that was passaged in parallel, was used as reference to align the MNV variants that were under compound pressure.
as §1

Another series concerns the target MNV RdRp (Norovirus, UniProt Q80J95). Nature of the series: In vitro enzymatic inhibition assay with MNV RdRp. Particulars: 3.4 µM MNV RdRp, poly(U) template, 100 µM ATP, compound 0 to 100 µM. Format: biochemical, Murine norovirus. Here is the method:
Compound 6 was tested to determine its effects on the polymerase activity. The formation of dsRNA, from a single-stranded poly(U) template (Sigma-Aldrich, 10 µg) and 100 µM ATP, was followed for 1 h at 30 °C on a TECAN Infinite 200 PRO microplate reader, measuring the growth of PicoGreen fluorescence (Ex/Em = 485/530 nm) after the addition of 3.4 µM MNV RdRp and of increasing amounts of compound 6 (from 0 to 100 µM), in a reaction mixture containing 20 mM Tris/HCl (pH 7.5), 25 mM NaCl, 0,3 mM MnCl2, 5 mM MgCl2, 1 mM DTT, 2 U RiboLock Ribonuclease inhibitor (Life technologies). The final fluorescence values were calculated as the average of four independent experiments. Measurement of the activity (i.e., linear slope of fluorescence increase in time) vs. compound 6 concentration was used to estimate the IC50 value of the compound with the program GraFit5 (Erithacus software).

The test system of series [6] is MNV. Nature of the series: MNV virus yield assay, viral RNA by RT-qPCR. Format: cell-based, Murine norovirus. Particulars: viral RNA levels by RT-qPCR. As to the method:
The supernatants of treated or untreated infected cells were harvested. The viral RNA was isolated from supernatant using the NucleoSpin RNA Virus Kit (Macherey–Nagel), according to the manufacturer’s protocol and was quantified by RT-qPCR. A one-step RT-qPCR was performed in a reaction mixture of 20 μL containing 10 μL reaction mix from the iTaq Universal Probes One-Step Kit (Bio-Rad), 0.5 μL reverse transcriptase, 4 μL template RNA, primers, and probe.
Background: In qPCR the cycle at which signal appears reflects the starting amount.

Where “and” joins values, the source holds several entries; their conditions need not be identical. Identical values can stand only once. Entries after “also recorded” stand apart in the source; their conditions may differ. Like-named read-outs stand apart in the source and are kept apart here.

MNV RdRp, sequence (Q80J95 1178-1687): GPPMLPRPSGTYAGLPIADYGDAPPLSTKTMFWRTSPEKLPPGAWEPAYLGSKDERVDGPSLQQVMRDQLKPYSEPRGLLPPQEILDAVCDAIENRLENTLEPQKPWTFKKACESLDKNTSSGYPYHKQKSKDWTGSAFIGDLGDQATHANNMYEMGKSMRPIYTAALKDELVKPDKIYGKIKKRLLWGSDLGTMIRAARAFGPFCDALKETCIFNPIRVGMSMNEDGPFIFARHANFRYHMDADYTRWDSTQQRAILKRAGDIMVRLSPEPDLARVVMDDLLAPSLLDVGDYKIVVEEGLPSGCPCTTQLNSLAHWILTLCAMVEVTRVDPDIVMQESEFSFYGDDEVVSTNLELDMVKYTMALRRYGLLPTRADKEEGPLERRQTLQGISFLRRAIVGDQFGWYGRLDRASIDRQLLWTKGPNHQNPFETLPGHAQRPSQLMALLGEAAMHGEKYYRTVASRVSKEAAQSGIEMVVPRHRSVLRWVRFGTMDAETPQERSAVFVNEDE

Turning to `Cc1cc(C)cc(S(=O)(=O)c2c(C(=O)NCc3ccc(CO)cc3)[nH]c3ccc(Cl)cc23)c1` [compound 6, 5-Chloro-3-((3,5-dimethylphenyl)sulfonyl)-N-(4-(hydroxymethyl)benzyl)-1H-indole-2-carboxamide], the melting point (as a rule, the temperature of the solid-liquid transition) was 124 to 126 °C. Moreover, in series [1], the “shift in EC50 / sensitivity of mutant viruses” value is reported as “no shift in EC50”. In addition, in series [2] (Norovirus, HG23, 72 h, read-out: HuNoV Replicon EC50 ± SD (µM), Norwalk replicon (human GI.1), HG23 cells, 72 h, replicon RNA by RT-qPCR), the EC50 (as a rule, the midpoint of the concentration-response curve) is 1.24 µM. In addition, the concentration giving a half-maximal response (EC50) in series [2] (Norwalk replicon (human GI.1), HG23 cells, 72 h, replicon RNA by RT-qPCR, read-out: HuNoV Replicon EC50 ± SD) is 1.2 µM and ~1.7 µM. Moreover, the “adverse effects on the host cells” value in series [2] (host cells of HuNoV GI.1 replicon assay) was “without adverse effects on the host cells”. Besides, the half-maximal effective concentration (EC50) in series [2] (read-out: HuNoV Replicon EC50 ± SD, Norwalk replicon (human GI.1), HG23 cells, 72 h, replicon RNA by RT-qPCR) amounted to 1.27 ± 0.76 µM. In addition, in the series with MNV [3] (MNV MOI 1, RAW 264.7 cells, compound added at 2 h intervals), the “time of addition after which the antiviral effect was lost” value is 6–8 h pi. Moreover, the “step of the MNV replication cycle at which the compound acts” value in the series on MNV [3] (time-of-addition experiment) is “onset of the viral genome replication”. In addition, in series [4] (RAW264.7, concentration inhibiting norovirus induced cell death (CPE) by 50%), the EC50 was determined as 200 ± 100 nM. The EC50 in series [4] (concentration inhibiting norovirus induced cell death (CPE) by 50%) stood at 160 ± 60 nM. Moreover, in series [5] (mutants 1 and 3 together), the “shift in EC50” value was 6–8 fold. Further, the “shift in EC50 values” in series [5] (resistant variant mutant 1 (first value), after 30 passages) is given as 8.6 fold. For the same compound, in series [5] (resistant variant mutant 3, after 30 passages), the “shift in EC50 values” is reported as 6.2 fold. In addition, on MNV RdRp, the “direct inhibition of the norovirus polymerase (competition with natural substrate)” value is given as “no direct competition; also recorded: could not directly inhibit the active site of the enzyme”. In addition, the EC50 in the series on MNV [6] worked out at 210 ± 30 nM.
